ChEMBL document CHEMBL4020724, “Selective HDAC inhibitors with potent oral activity against leukemia and colorectal cancer: Design, structure-activity relationship and anti-tumor activity study” (Eur J Med Chem, 2017)
The source made the active and inactive calls. No cut-off for these calls is given here.

Assays:
HL-60 [1] = experiment: Induction of apoptosis in human HL60 cells assessed as increase in cleaved caspase-3 level at 5 uM after 48 hrs by Western blot analysis; assay type: functional, cell-based
Mus musculus [2] = experiment: Toxicity in BALB/c nude mouse xenografted with human HCT116 cells assessed as body weight at 50 mg/kg/day administered via oral gavage for 16 days (reference value: 19.91 +/- 1.26 g); assay type: organism-based; details: in vivo, 384 h
[3] = Inhibition of class 1 HDAC in human HL60 cells using Boc-Ac-Lys-AMC as substrate incubated for 3 hrs followed by substrate addition measured after 3 hrs by fluorescence assay; assay type: cell-based; details: HL-60, 3 h
HL-60 [4] = experiment: Induction of apoptosis in human HL60 cells assessed as decrease in procaspase-3 level at 5 uM after 48 hrs by Western blot analysis; assay type: functional, cell-based
Mus musculus [5] = experiment: Toxicity in BALB/c nude mouse xenografted with human U937 cells assessed as body weight at 50 mg/kg/day administered via oral gavage for 13 days (reference value: 25.39 +/- 1.18 g); assay type: organism-based; details: in vivo, 312 h
U-937 [6] = experiment: Antitumor activity against human U937 cells xenografted in BALB/c nude mouse assessed as tumor growth inhibition at 50 mg/kg/day administered via oral gavage for 13 days measured every 3 days; assay type: functional; details: U-937, po, read-out: TGI
U-937 [7] = experiment: Antitumor activity against human U937 cells xenografted in BALB/c nude mouse assessed as relative tumor increment ratio at 50 mg/kg/day administered via oral gavage for 13 days measured every 3 days; assay type: functional
HCT-116 [8] = experiment: Antitumor activity against human HCT116 cells xenografted in BALB/c nude mouse assessed as tumor growth inhibition at 50 mg/kg/day administered via oral gavage for 16 days measured every 3 days; assay type: functional; details: HCT-116, po, read-out: TGI
Mus musculus [9] = experiment: Toxicity in BALB/c nude mouse xenografted with human U937 cells assessed as body weight loss at 50 mg/kg/day administered via oral gavage for 13 days; details: in vivo, 312 h
cells = details: Homo sapiens, ES-2, 48 h
Description: Antiproliferative activity against human ES2 cells after 48 hrs by MTT assay

HCT-116 [10] = experiment: Antitumor activity against human HCT116 cells xenografted in BALB/c nude mouse assessed as relative tumor increment ratio at 50 mg/kg/day administered via oral gavage for 16 days measured every 3 days; assay type: functional
HL-60 [11] = experiment: Induction of apoptosis in human HL60 cells assessed as increase in cleaved PARP level at 5 uM after 48 hrs by Western blot analysis; assay type: functional, cell-based

SMILES: Nc1ccccc1NC(=O)c1ccc(CNC(=O)OCc2cccnc2)cc1 [ENTINOSTAT]
- Activity (HL-60 [1]): Active
- Activity (Mus musculus [2]): 18.87 g
- IC50 [3]: 620 nM
- Activity (HL-60 [4]): Active
- Activity (Mus musculus [5]): 19.77 g
- inhibition in vivo at 50 mg/kg/day (U-937 [6]): 60%
- T/C (U-937 [7]): 32%
- inhibition in vivo at 50 mg/kg/day (HCT-116 [8]): 62%
- Activity (Mus musculus [9]): Toxic
- IC50 (cells): > 20 µM
- T/C (HCT-116 [10]): 46%
- Activity (HL-60 [11]): Active
